Where two headings read alike, the source gives them in different places. Positions of bridges follow the written chain, without caps; N, C: chain ends. Non-standard residues stand in square brackets, D forms with d. Residues, ends and D or L forms follow the SMILES beside them. *: point of attachment. Phe(4-I) = N[C@@H](Cc1ccc(I)cc1)C(=O)O; Pent4ynoyl = C#CCCC(=O)*; Abu = CC[C@H](N)C(=O)O

Test in all cases: cell-based
One assay deals with hNav1.7 (Homo sapiens, UniProt Q15858). The class given is cell-based. To be noted: IonWorks Quattro, read-out: IWQ Use Nav1.7. A general note: The patch-clamp technique gives a direct electrical read-out from membranes.
Sequence of hNav1.7 (Q15858 whole entry, looked up): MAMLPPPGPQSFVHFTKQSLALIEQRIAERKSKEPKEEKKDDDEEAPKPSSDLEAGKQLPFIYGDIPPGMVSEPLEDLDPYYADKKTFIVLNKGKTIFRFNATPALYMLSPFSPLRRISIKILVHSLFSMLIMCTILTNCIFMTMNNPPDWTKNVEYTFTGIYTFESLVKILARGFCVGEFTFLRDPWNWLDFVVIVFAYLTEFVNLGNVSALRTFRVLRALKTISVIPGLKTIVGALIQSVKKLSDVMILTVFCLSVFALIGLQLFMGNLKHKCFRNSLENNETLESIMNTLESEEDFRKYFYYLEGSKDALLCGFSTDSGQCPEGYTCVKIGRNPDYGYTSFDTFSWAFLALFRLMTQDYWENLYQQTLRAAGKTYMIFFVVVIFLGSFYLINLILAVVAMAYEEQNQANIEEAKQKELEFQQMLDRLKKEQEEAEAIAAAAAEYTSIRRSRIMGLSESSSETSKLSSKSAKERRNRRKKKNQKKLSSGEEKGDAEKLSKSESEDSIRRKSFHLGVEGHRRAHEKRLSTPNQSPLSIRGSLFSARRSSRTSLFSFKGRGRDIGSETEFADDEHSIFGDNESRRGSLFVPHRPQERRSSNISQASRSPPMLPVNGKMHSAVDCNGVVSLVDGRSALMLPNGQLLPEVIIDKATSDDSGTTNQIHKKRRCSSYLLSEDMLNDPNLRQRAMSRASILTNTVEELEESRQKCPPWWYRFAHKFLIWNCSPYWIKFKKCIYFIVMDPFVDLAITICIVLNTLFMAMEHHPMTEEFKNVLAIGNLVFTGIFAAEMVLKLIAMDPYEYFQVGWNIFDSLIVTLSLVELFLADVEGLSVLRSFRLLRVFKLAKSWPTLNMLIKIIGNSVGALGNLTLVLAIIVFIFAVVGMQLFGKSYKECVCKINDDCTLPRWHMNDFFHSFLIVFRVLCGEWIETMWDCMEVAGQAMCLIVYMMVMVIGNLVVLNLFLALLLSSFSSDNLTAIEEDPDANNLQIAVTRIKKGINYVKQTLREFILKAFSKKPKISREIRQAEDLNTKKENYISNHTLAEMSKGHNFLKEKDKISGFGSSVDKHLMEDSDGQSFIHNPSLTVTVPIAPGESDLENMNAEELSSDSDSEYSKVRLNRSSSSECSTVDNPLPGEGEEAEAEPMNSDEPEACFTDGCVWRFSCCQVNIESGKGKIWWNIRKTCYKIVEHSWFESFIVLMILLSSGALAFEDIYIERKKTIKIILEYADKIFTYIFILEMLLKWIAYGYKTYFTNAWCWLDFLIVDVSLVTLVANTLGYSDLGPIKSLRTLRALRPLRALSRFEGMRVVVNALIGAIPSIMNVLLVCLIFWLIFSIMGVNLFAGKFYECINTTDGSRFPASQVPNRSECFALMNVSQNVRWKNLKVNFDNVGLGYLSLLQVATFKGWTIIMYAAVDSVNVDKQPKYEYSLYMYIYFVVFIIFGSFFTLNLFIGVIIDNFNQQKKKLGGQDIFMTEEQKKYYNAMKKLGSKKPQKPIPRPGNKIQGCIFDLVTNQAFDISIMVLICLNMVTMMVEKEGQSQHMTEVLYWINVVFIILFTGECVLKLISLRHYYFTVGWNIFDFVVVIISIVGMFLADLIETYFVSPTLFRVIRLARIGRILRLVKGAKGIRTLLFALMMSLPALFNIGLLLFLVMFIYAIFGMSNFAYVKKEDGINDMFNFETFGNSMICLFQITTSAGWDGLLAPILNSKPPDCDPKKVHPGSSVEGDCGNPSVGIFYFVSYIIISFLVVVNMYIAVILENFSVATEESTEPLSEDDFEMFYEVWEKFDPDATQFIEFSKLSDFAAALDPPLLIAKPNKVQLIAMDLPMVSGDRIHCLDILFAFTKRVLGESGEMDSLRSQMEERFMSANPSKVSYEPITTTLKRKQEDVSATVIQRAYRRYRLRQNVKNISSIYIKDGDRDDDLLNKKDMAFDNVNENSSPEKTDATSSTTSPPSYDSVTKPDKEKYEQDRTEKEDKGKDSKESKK
The target of another assay is hNav1.5 (Homo sapiens, UniProt Q14524).
Another assay concerns the target hNav1.3 (Homo sapiens, UniProt Q9NY46). To be noted: IonWorks Quattro, read-out: IWQ Use Nav1.3.
[1] abbreviates: IonWorks Quattro, use-dependent block, hNav1.5, read-out: IWQ Use Nav1.5.
Setting [2] is: use-dependent protocol, hNav1.7.
[3] abbreviates: IonWorks Quattro, use-dependent protocol, hNav1.5, read-out: IWQ Use Nav1.5.
Setting [4] is: use-dependent protocol, hNav1.3.

Sequence of hNav1.3 (Q9NY46 whole entry, looked up): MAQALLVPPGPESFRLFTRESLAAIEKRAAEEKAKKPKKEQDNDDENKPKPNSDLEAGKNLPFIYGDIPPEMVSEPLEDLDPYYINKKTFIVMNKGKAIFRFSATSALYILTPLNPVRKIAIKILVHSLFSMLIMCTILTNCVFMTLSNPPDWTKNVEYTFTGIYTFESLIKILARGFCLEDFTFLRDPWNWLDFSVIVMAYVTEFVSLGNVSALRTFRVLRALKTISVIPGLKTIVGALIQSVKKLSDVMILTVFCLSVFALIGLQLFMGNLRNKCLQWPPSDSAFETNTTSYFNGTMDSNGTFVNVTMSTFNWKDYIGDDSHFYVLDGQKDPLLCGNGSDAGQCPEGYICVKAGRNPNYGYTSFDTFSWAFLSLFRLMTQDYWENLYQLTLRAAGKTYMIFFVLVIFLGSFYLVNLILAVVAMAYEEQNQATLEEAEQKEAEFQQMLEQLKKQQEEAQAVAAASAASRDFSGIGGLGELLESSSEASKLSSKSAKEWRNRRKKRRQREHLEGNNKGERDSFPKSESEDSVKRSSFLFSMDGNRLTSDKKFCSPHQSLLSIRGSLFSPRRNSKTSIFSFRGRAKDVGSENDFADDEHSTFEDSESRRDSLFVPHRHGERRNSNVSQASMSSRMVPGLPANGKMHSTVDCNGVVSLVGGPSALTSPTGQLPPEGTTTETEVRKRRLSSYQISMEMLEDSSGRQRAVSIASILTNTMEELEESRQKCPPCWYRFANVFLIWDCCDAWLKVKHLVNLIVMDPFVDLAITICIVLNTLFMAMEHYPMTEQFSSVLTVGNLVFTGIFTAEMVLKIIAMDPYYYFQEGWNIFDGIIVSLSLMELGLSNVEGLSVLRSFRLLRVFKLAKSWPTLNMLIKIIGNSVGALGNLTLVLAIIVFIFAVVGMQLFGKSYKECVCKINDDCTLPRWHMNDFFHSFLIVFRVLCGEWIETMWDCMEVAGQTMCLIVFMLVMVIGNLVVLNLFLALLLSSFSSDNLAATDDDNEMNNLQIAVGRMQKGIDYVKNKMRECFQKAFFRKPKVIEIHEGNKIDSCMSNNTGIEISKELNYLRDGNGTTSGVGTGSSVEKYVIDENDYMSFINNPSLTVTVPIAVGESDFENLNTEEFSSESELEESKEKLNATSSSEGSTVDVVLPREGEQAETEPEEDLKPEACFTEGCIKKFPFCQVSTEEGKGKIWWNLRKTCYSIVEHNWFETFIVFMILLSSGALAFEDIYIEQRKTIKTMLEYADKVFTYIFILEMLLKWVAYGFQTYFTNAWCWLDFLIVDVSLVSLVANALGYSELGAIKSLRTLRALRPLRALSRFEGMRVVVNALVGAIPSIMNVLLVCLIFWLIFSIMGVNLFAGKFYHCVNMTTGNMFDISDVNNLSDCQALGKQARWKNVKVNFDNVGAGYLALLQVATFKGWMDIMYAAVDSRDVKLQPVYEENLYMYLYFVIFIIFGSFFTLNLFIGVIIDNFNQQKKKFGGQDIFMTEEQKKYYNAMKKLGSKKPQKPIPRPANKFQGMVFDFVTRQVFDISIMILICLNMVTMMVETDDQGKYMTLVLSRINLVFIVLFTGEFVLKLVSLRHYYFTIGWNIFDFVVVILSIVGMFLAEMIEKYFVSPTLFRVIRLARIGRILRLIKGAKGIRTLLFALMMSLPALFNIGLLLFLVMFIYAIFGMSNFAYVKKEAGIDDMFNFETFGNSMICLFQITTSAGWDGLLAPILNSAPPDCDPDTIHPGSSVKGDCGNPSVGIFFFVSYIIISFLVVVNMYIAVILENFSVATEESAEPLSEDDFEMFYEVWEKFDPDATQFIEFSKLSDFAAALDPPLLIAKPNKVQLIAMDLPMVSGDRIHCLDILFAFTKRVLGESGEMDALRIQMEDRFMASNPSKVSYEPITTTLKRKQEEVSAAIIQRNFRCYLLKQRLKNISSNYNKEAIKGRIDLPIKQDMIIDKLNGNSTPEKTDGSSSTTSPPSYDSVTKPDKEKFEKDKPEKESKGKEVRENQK

Take `C#CCCC(=O)N[C@@H](CC(=O)O)C(=O)N[C@H]1CSSC[C@@H]2NC(=O)[C@@H]3CSSC[C@@H](C(=O)N[C@@H](CCCCN)C(=O)N[C@@H](Cc4ccc(O)cc4)C(=O)N[C@H](C(=O)N[C@@H](Cc4ccccc4)C(N)=O)C(C)C)NC(=O)[C@H](Cc4c[nH]c5ccccc45)NC(=O)[C@H](CCCCN)NC(=O)[C@H](Cc4c[nH]cn4)NC(=O)[C@H]([C@@H](C)O)NC(=O)[C@H](CCCNC(=N)N)NC(=O)[C@H](CO)NC(=O)[C@H](CSSC[C@H](NC(=O)[C@H](CCCCN)NC(=O)[C@H](CCCNC(=N)N)NC(=O)[C@H](CC(C)C)NC(=O)[C@H](CC)NC(=O)CNC(=O)[C@H](CC(C)C)NC1=O)C(=O)N[C@@H]([C@@H](C)CC)C(=O)N1CCC[C@H]1C(=O)N[C@@H](CC(=O)O)C(=O)N[C@@H](CC)C(=O)N[C@@H](CC(=O)O)C(=O)N[C@@H](CCCCN)C(=O)N3)NC(=O)[C@H](C(C)C)NC(=O)[C@H](CC(C)C)NC(=O)[C@H](CC(N)=O)NC(=O)[C@@H]1CCCN1C(=O)[C@H](CCCNC(=N)N)NC2=O` [compound 758] (Pent4ynoyl-DCLG[Abu]LRKCIPD[Abu]DKCCRPNLVCSRTHKWCKYVF-NH2; disulfide 2-17, 9-23, 16-30): the IC50 on hNav1.7 (use-dependent block, hNav1.7) is 460 nM; on hNav1.5 (setting [1]), 32700 nM; on hNav1.3 (use-dependent block, hNav1.3), 690 nM.
For the compound `CC[C@H](C)[C@@H]1NC(=O)[C@@H]2CSSC[C@@H]3NC(=O)[C@H](C(C)C)NC(=O)[C@H](CC(C)C)NC(=O)[C@H](CC(N)=O)NC(=O)[C@@H]4CCCN4C(=O)[C@H](CCCNC(=N)N)NC(=O)[C@H](CSSC[C@H](NC(=O)[C@@H](N)CC(=O)O)C(=O)N[C@@H](CC(C)C)C(=O)NCC(=O)N[C@@H](C(C)(C)C)C(=O)N[C@@H](CC(C)C)C(=O)N[C@@H](CCCNC(=N)N)C(=O)N[C@@H](CCCCN)C(=O)N2)NC(=O)[C@H](CSSC[C@@H](C(=O)N[C@@H](CCCCN)C(=O)N[C@@H](Cc2ccc(O)cc2)C(=O)N[C@H](C(=O)N[C@@H](Cc2ccccc2)C(N)=O)C(C)C)NC(=O)[C@H](Cc2c[nH]c4ccccc24)NC(=O)[C@H](CCCCN)NC(=O)[C@H](Cc2c[nH]cn2)NC(=O)[C@H]([C@@H](C)O)NC(=O)[C@H](CCCNC(=N)N)NC(=O)[C@H](CO)NC3=O)NC(=O)[C@H](CCCCN)NC(=O)[C@H](CC(=O)O)NC(=O)[C@H](CC(N)=O)NC(=O)[C@H](CC(=O)O)NC(=O)[C@@H]2CCCN2C1=O` [compound 659], the IC50 on hNav1.7 (setting [2]) was 260 nM; on hNav1.5 (setting [3]), over 5000 nM; at hNav1.3 (setting [4]), 580 nM.
As for `CC[C@H](C)[C@@H]1NC(=O)[C@@H]2CSSC[C@@H]3NC(=O)[C@H](C(C)C)NC(=O)[C@H](CC(C)C)NC(=O)[C@H](CC(N)=O)NC(=O)[C@@H]4CCCN4C(=O)[C@H](CCCNC(=N)N)NC(=O)[C@H](CSSC[C@H](NC(=O)[C@@H](N)CC(=O)O)C(=O)N[C@@H](CC(C)C)C(=O)NCC(=O)N[C@@H](C4CCCC4)C(=O)N[C@@H](CCSC)C(=O)N[C@@H](CCCNC(=N)N)C(=O)N[C@@H](CCCCN)C(=O)N2)NC(=O)[C@H](CSSC[C@@H](C(=O)N[C@@H](CCCCN)C(=O)N[C@@H](Cc2ccc(O)cc2)C(=O)N[C@H](C(=O)N[C@@H](Cc2ccccc2)C(N)=O)C(C)C)NC(=O)[C@H](Cc2c[nH]c4ccccc24)NC(=O)[C@H](CCCCN)NC(=O)[C@H](Cc2cnc[nH]2)NC(=O)[C@H]([C@@H](C)O)NC(=O)[C@H](CCCNC(=N)N)NC(=O)[C@H](CO)NC3=O)NC(=O)[C@H](CCCCN)NC(=O)[C@H](CC(=O)O)NC(=O)[C@H](CC(N)=O)NC(=O)[C@H](CC(=O)O)NC(=O)[C@@H]2CCCN2C1=O` [compound 683], the IC50 is 230 nM at hNav1.7 (setting [2]), over 5000 nM against hNav1.5 (IWQ Use Nav1.5) and 630 nM on hNav1.3 (setting [4]).
On to `CC[C@H](C)[C@@H]1NC(=O)[C@@H]2CSSC[C@@H]3NC(=O)[C@H](C(C)C)NC(=O)[C@H](CC(C)C)NC(=O)[C@H](CCC(=O)O)NC(=O)[C@@H]4CCCN4C(=O)[C@H](CCCNC(=N)N)NC(=O)[C@H](CSSC[C@H](NC(=O)[C@@H](N)CC(=O)O)C(=O)N[C@@H](CC(C)C)C(=O)NCC(=O)N[C@@H](Cc4ccccc4)C(=O)N[C@@H](CCSC)C(=O)N[C@@H](CCCNC(=N)N)C(=O)N[C@@H](CCCCN)C(=O)N2)NC(=O)[C@H](CSSC[C@@H](C(=O)N[C@@H](CCCCN)C(=O)N[C@@H](Cc2ccc(O)cc2)C(=O)N[C@H](C(=O)N[C@@H](Cc2ccccc2)C(N)=O)C(C)C)NC(=O)[C@H](Cc2c[nH]c4ccccc24)NC(=O)[C@H](CCCCN)NC(=O)[C@H](Cc2cnc[nH]2)NC(=O)[C@H]([C@@H](C)O)NC(=O)[C@H](CCCNC(=N)N)NC(=O)[C@H](CO)NC3=O)NC(=O)[C@H](CCCCN)NC(=O)[C@H](CC(=O)O)NC(=O)[C@H](CC(N)=O)NC(=O)[C@H](CC(=O)O)NC(=O)[C@@H]2CCCN2C1=O` [compound 149] (H-DCLGFMRKCIPDNDKCCRPELVCSRTHKWCKYVF-NH2; disulfide 2-17, 9-23, 16-30), for which the IC50 at hNav1.7 (Use) is 1420 nM; at hNav1.5 (IonWorks Quattro, Use, read-out: IWQ Use Nav1.5), 7490 nM; at hNav1.3 (Use), 1020 nM.
In the case of `CC[C@H](C)[C@@H]1NC(=O)[C@@H]2CSSC[C@@H]3NC(=O)[C@H](C(C)C)NC(=O)[C@H](CC(C)C)NC(=O)[C@H](CC(N)=O)NC(=O)[C@@H]4CCCN4C(=O)[C@H](CCCNC(=N)N)NC(=O)[C@H](CSSC[C@H](NC(=O)[C@@H](N)CC(=O)O)C(=O)N[C@@H](CC(C)C)C(=O)NCC(=O)NCCC(=O)N[C@@H](CCSC)C(=O)N[C@@H](CCCNC(=N)N)C(=O)N[C@@H](CCCCN)C(=O)N2)NC(=O)[C@H](CSSC[C@@H](C(=O)N[C@@H](CCCCN)C(=O)N[C@@H](Cc2ccc(O)cc2)C(=O)N[C@H](C(=O)N[C@@H](Cc2ccccc2)C(N)=O)C(C)C)NC(=O)[C@H](Cc2c[nH]c4ccccc24)NC(=O)[C@H](CCCCN)NC(=O)[C@H](Cc2c[nH]cn2)NC(=O)[C@H]([C@@H](C)O)NC(=O)[C@H](CCCNC(=N)N)NC(=O)[C@H](CO)NC3=O)NC(=O)[C@H](CCCCN)NC(=O)[C@H](CC(=O)O)NC(=O)[C@H](CC(N)=O)NC(=O)[C@H](CC(=O)O)NC(=O)[C@@H]2CCCN2C1=O` [compound 648], the IC50 on hNav1.7 (setting [2]) was 4700 nM; on hNav1.5 (setting [3]), over 5000 nM; on hNav1.3 (setting [4]) it was over 5000 nM.
Regarding `CC[C@H](C)[C@@H]1NC(=O)[C@@H]2CSSC[C@@H]3NC(=O)[C@H](C(C)C)NC(=O)[C@H](CC(C)C)NC(=O)[C@H](CC(N)=O)NC(=O)[C@@H]4CCCN4C(=O)[C@H](CCCNC(=N)N)NC(=O)[C@H](CSSC[C@H](NC(=O)[C@@H](N)CC(=O)O)C(=O)N[C@@H](CC(C)C)C(=O)NCC(=O)N[C@@H](Cc4ccccc4)C(=O)N[C@@H](CCSC)C(=O)N[C@@H](CCCNC(=N)N)C(=O)N[C@@H](CCCCN)C(=O)N2)NC(=O)[C@H](CSSC[C@@H](C(=O)N[C@@H](CCCCN)C(=O)N[C@@H](Cc2ccc(O)cc2)C(=O)N[C@H](C(=O)N[C@@H](Cc2ccccc2)C(N)=O)C(C)C)NC(=O)[C@H](Cc2ccc(I)cc2)NC(=O)[C@H](CCCCN)NC(=O)[C@H](Cc2c[nH]cn2)NC(=O)[C@H]([C@@H](C)O)NC(=O)[C@H](CCCNC(=N)N)NC(=O)[C@H](CO)NC3=O)NC(=O)[C@H](CCCCN)NC(=O)[C@H](CC(=O)O)NC(=O)[C@H](CC(N)=O)NC(=O)[C@H](CC(=O)O)NC(=O)[C@@H]2CCCN2C1=O` [compound 358] (H-DCLGFMRKCIPDNDKCCRPNLVCSRTHK[Phe(4-I)]CKYVF-NH2; disulfide 2-17, 9-23, 16-30), the IC50 on hNav1.7 (Table 24, use, […]) is 1010 nM; at hNav1.5 (Table 24, IonWorks Quattro, use, […], read-out: IWQ Use Nav1.5) it was 14900 nM; on hNav1.3 (Table 24, use, […]), 1270 nM.
Take `CC[C@H](C)[C@@H]1NC(=O)[C@@H]2CSSC[C@@H]3NC(=O)[C@H](C(C)C)NC(=O)[C@H](CC(C)C)NC(=O)[C@H](CC(N)=O)NC(=O)[C@@H]4CCCN4C(=O)[C@H](CCCNC(=N)N)NC(=O)[C@H](CSSC[C@H](NC(=O)[C@@H](N)CC(=O)O)C(=O)N[C@@H](CC(C)C)C(=O)NCC(=O)N[C@@H](C)C(=O)N[C@@H](Cc4ccccc4)C(=O)N[C@@H](CCCNC(=N)N)C(=O)N[C@@H](CCCCN)C(=O)N2)NC(=O)[C@H](CSSC[C@@H](C(=O)N[C@@H](CCCCN)C(=O)N[C@@H](Cc2ccc(O)cc2)C(=O)N[C@H](C(=O)N[C@@H](Cc2ccccc2)C(N)=O)C(C)C)NC(=O)[C@H](Cc2c[nH]c4ccccc24)NC(=O)[C@H](CCC(=O)O)NC(=O)[C@H](Cc2c[nH]cn2)NC(=O)[C@H]([C@@H](C)O)NC(=O)[C@H](CCCNC(=N)N)NC(=O)[C@H](CO)NC3=O)NC(=O)[C@H](CCCCN)NC(=O)[C@H](CC(=O)O)NC(=O)[C@H](CC(N)=O)NC(=O)[C@H](CC(=O)O)NC(=O)[C@@H]2CCCN2C1=O` [compound 729] (H-DCLGAFRKCIPDNDKCCRPNLVCSRTHEWCKYVF-NH2; disulfide 2-17, 9-23, 16-30): the IC50 came out at 1100 nM at hNav1.7 (use-dependent block, hNav1.7); 48000 nM on hNav1.5 (setting [1]); 1800 nM at hNav1.3 (use-dependent block, hNav1.3).

The values above are taken from patent US9340590B2 (priority 2011, dated 2016).
